Molecules are shown by their SMILES. Where a name gives a salt, the structure may show the parent alone.

Test [1] has as its system serum level of PTH (1-34+1-84). The experiment in a line: PTH measurement on intact rats (serum PTH by IRMA after oral administration). Particulars: for inhibition in vivo at 30 mg/kg: Rattus norvegicus, 0.5 h, oral, male Sprague-Dawley rats fasted 16 h, serum 30 min after dosing, read-out: % PTH reduction at 30 min. relative to the untreated group (intact rat). It is filed as in vivo, rat. How it is done: I—PTH Measurement on Intact Rats
After fasting for 16 hours, some male rats (Sprague-Dawley, 250-300 g, Charles River France or CERJ) received an oral administration of the compounds to be tested or their vehicle. 30 min. after this bolus, the animals were slaughtered by decapitation using a guillotine. The arterial and venous blood was collected at 4° C. and centrifuged cold, then the sera were frozen at −20° C. After thawing, the serum level of PTH (1-34+1-84) was measured by a radioimmunology test (IRMA kit, rat, Immutopics).

The subject of test [2] is serum level of PTH (1-34+1-84). Kind of test: PTH measurement in rats with chronic renal failure (5/6 nephrectomy). Particulars: oral, dose 10 mg/kg, 5/6 nephrectomised rats, ten days after nephrectomy, fasted 16 h, serum 30 min after dosing. It is filed as in vivo, rat. The text has this: II—Rats with Chronic Renal Failure
Chronic renal failure (CRF) was induced in male rats (220-250 g, Sprague-Dawley, CERJ) by ablation of ⅚ of the total renal mass. After anaesthesia (Imalgene 1000), the rats were subjected to exeresis of the right kidney and ablation of both ends of the left kidney, representing approximately ⅔ of the organ).
The incision was cauterised by application of dry ice. To compensate for the loss of blood volume, the animals received an intravenous injection of physiological serum. Two days after the procedure and for the remainder of the trial, the rats were fed with a standard diet (UAR or Safe) and drank phosphate-enriched (1.2%) Volvic® water at will. The procedure was carried out either at the supplier's or at the laboratory. Ten days after nephrectomy, the animals which had been fasting for 16 hours entered the trial. The compounds to be tested or their vehicle were administered orally 30 min. prior to sacrifice. The arterial and venous blood was at 4° C. after decapitation using a guillotine and was centrifuged cold. The sera were frozen a −20° C. After thawing, the serum level of PTH (1-34+1-84) was measured by a radioimmunology test (IRMA kit, rat, Immutopics).

For `CC(C)OC(=O)c1cc(NC(=O)N(CCC(c2ccccc2)c2ccccc2)CCN2CCOCC2)ccc1Cl` [Example 51, 2-chloro-5-[3-(3,3-diphenylpropyl)-3-(2-morpholin-4-ylethyl)ureido]benzoic acid isopropyl ester hydrochloride], in test [1], the inhibition in vivo at 30 mg/kg came out at 13%. Same read-out and setting: under `O=C(Nc1cccc(-c2ccco2)c1)N(CCC(c1ccccc1)c1ccccc1)CCN1CCOCC1` [Example 76A, 1-(3,3-diphenylpropyl)-3-(3-furan-2-ylphenyl)-1-(2-morpholin-4-ylethyl)urea hydrochloride] stands 14%. On to `Cn1nnc(-c2cccc(NC(=O)N(CCC(c3ccccc3)c3ccccc3)CCN3CCOCC3)c2)n1` (single isomer, unassigned) [Example 85, 1-(3,3-diphenylpropyl)-3-[3-(2-methyl-2H-tetrazol-5-yl)phenyl]-1-(2-morpholin-4-ylethyl)urea], for which the inhibition in vivo at 30 mg/kg in test [1] came to 88%. Further, the “% PTH reduction at 30 min. relative to the untreated group (CRF rat)” value in test [2] turned out to be 70%. For `Cl.O=C(Nc1cccc(-c2cnco2)c1)N(CCC(c1ccccc1)c1ccccc1)CCN1CCOCC1` [Example 68, 1-(3,3-diphenylpropyl)-1-(2-morpholin-4-ylethyl)-3-(3-oxazol-5-ylphenyl)urea hydrochloride], the inhibition in vivo at 30 mg/kg in test [1] is 94%. For the same compound, the “PTH level reduced relative to the control group” value in test [1] (oral administration, dose of 30 mg/kg, intact rats, 30 min) is recorded as 94%. The “% PTH reduction at 30 min. relative to the untreated group (CRF rat)” value in test [2] came to 67%.

For the compound `CC(C)OC(=O)c1cccc(NC(=O)N(CCC(c2ccccc2)c2ccccc2)CCN2CCOCC2)c1` [Example 48, 3-[3-(3,3-diphenylpropyl)-3-(2-morpholin-4-ylethyl)ureido]benzoic acid isopropyl ester hydrochloride], the inhibition in vivo at 30 mg/kg in test [1] amounted to 32%. The same measure, in the same setting: to `CCC(=O)c1cccc(NC(=O)N(CCC(c2ccccc2)c2ccccc2)CCN2CCOCC2)c1` [Example 42] belongs 69%; to `O=C(Nc1ccc(Cl)c(C(F)(F)F)c1)N(CCC(c1ccccc1)c1ccccc1)CCN1CCOCC1` [Example 43, 3-(4-chloro-3-trifluoromethylphenyl)-1-(3,3-diphenylpropyl)-1-(2-morpholin-4-ylethyl)urea hydrochloride], 43%.

For `CC(C)(C)OC(=O)c1cccc(NC(=O)N(CCC(c2ccccc2)c2ccccc2)CCN2CCOCC2)c1` [Example 40, 3-[3-(3,3-diphenylpropyl)-3-(2-morpholin-4-ylethyl)ureido]benzoic acid tertbutyl ester hydrochloride], the inhibition in vivo at 30 mg/kg in test [1] was found to be 21%. As for `COC(=O)c1cccc(NC(=O)N(CCC(c2ccccc2)c2ccccc2)CCN2CCOCC2)c1` [Example 1, 3-[3-(3,3-diphenylpropyl)-3-(2-morpholin-4-ylethyl)ureido]benzoic acid methyl ester], the inhibition in vivo at 30 mg/kg in test [1] was determined as 56%.

(Values after patent US7875609B2, “Urea derivatives, processes for their preparation, their use as medicaments, and pharmaceutical compositions containing them” (Galapagos Sasu, priority 2005, dated 2011).)
